# Assay results taken from patent publication US20200046836A1, “Terpene Carrier” (priority 2015, published 2020).
# Read-outs that look alike come from different tables or passages of the source.
# Key:
# [1] = cited from earlier work
# [2] = reported; cited from earlier work
# [3] = Amount of lipophilic active ingredient that the carrier can hold in solution; assay type: physicochemical; settings: Example 7
smiles,measurement,setting,value
C=C1CC/C=C(\C)CC[C@@H]2[C@@H]1CC2(C)C [Beta-caryophyllene],LD50 (Lethal Dose),[1]; in vivo,> 5000 mg/kg
"CCCCCc1cc(O)c2c(c1)OC(C)(CCC=C(C)C)C=C2 (stereo not shown) [CBC, cannabichromene]",effectiveness relative to CBD in the treatment of anxiety and stress,[2],about ten times more effective than CBD
"C=C(C)[C@@H]1CCC(C)=C[C@H]1c1c(O)cc(CCCCC)cc1O [CBD, cannabidiol]",keeping CBD in solution in the propylene glycol/glycerine mixture,[3]; control carrier,difficult to maintain 10% by weight
same,CBD content of solution that could be prepared in the terpene mixture,[3]; terpene mixture,at least 30 % by weight
C=CC(C)(O)CCC=C(C)C (stereo not shown) [Linalool],LD50 (Lethal Dose),[1]; in vivo,3000 mg/kg
C=CC(=C)CCC=C(C)C [Myrcene],LD50 (Lethal Dose),[1]; in vivo,> 5000 mg/kg
"CN1CCCC1c1cccnc1 (stereo not shown) [nicotine, reference compound]",LD50 (Lethal Dose),[1]; nicotine as comparison,40 to 60 mg/kg
